Data on one molecule can be found in patent US9067914B1, “Tropomyosin-related kinase (TRK) inhibitors” (Genzyme Corporation, priority 2013, dated 2015).

The subject of data set [1] is PGPS knee arthritis in male Lewis rats. In words: Reactivated peptidoglycan-polysaccharide (PGPS) knee arthritis. The class given is in vivo, rat. The source says:
Male Lewis rats were acclimated to the testing facility for 7 days. The rats were housed in 5 per cage in shoe-box polycarbonate cages with wire tops, wood chip bedding and suspended food and water bottles.
On day −21, the male Lewis rats were randomized into treatment groups by body weight. The rats were anesthetized and injected with peptidoglycan-polysaccharide (PGPS) into the right knee to induce PGPS arthritis. Arthritis was reactivated on days 0 and 14 by an IV tail injection of PGPS.
The rats were weighed at baseline on days 0, 4, 14 and 18. Knee thickness was measured by caliper at baseline and on days 0, 2, 4, 14, 16 and 18. Gait analysis occurred on days 0-4 and 14-18, with video recording of selected animals on days 3 and 17. Gait analysis was performed by applying ink to the ventral surface of the foot and documenting weight bearing during movement across paper.
The animals were terminated at day 18. Right knees were removed, trimmed of extraneous tissue, and collected into 10% neutral buffered formalin. After two days in the formalin buffer and three days in 10% formic acid decalcifier, the knees were cut into two approximately equal halves in the frontal plane and processed for paraffin embedding and stained with T.Blue. Histological examinations were subsequently performed for bone resorption, inflammation, pannus and cartilage damage.
Body weights, gait deficiency and caliper measurements were analyzed using a one-way analysis of variance (1-way ANOVA) with Dunnett's multiple comparison post-test. Gait scores were analyzed using a Kruskal-Wallis test (non-parametric ANOVA) with Dunn's multiple comparison post-test. Histopathology scores were analyzed using a Kruskal-Wallis test (non-parametric ANOVA) with Dunn's multiple comparison post-test.

The target in a further data set is TrkA (Homo sapiens (Human), UniProt P04629). Put plainly: TrkA activity, off-chip mobility shift assay (LabChip 3000). The class given is biochemical. The conditions noted are these: 55 μM ATP (ATP Km); n/d = none detected.
Sequence of TrkA (P04629 33-796): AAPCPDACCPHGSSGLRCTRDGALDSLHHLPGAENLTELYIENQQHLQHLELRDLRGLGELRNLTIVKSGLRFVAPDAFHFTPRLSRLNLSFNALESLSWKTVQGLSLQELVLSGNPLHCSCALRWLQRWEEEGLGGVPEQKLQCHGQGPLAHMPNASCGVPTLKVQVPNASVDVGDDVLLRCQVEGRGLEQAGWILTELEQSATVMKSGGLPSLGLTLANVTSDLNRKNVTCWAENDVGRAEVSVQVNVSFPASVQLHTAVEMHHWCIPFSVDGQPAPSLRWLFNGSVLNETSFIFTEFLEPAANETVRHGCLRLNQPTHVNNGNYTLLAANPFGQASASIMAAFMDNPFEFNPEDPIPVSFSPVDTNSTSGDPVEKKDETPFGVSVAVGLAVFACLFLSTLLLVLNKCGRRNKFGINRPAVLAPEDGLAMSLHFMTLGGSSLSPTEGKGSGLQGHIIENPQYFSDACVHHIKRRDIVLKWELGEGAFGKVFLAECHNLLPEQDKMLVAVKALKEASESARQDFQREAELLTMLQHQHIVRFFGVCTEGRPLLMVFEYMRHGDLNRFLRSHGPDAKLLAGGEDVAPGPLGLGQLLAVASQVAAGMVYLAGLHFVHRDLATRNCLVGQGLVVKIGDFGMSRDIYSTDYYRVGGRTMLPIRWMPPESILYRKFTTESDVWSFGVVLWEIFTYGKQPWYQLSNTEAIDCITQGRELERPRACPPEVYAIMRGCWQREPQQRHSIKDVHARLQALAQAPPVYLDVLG
In a further data set the target is TrkB (Homo sapiens (Human), UniProt Q16620). Put plainly: TrkB activity, off-chip mobility shift assay (LabChip 3000). Conditions: 70 μM ATP (ATP Km); n/d = none detected. The class given is biochemical.
Sequence of TrkB (Q16620 32-822): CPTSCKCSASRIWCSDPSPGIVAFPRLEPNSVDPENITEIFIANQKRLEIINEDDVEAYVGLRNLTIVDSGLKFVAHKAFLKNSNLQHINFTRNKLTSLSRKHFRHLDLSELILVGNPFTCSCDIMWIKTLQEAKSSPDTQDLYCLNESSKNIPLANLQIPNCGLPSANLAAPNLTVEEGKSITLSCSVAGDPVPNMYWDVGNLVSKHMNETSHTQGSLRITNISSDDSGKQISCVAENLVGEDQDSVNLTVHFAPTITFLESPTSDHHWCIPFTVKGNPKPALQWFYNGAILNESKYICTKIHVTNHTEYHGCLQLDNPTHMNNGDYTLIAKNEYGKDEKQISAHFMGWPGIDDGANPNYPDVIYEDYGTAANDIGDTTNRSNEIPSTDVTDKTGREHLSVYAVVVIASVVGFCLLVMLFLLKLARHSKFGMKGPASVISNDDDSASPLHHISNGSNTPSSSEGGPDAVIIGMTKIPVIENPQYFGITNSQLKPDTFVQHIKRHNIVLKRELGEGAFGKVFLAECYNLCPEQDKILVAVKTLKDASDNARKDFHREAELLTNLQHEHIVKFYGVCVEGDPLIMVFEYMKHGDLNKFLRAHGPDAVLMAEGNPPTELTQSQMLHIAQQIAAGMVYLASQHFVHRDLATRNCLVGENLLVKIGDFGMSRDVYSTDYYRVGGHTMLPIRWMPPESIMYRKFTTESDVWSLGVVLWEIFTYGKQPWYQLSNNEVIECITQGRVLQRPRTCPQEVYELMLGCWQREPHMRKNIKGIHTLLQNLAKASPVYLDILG
Data set [2] deals with MIA induced osteoarthritis in male Wistar rats. In words: Monosodium iodoacetate (MIA) induced osteoarthritis, weight bearing. The class given is in vivo, rat. An excerpt:
Male Wistar rats were acclimated to the testing facility for 5 days. The rats were individually housed in micro-isolator shoe-box polycarbonate cages with cob bedding and water bottles. Dry pelleted food of known composition and nutritional components was provided ad libitum
Animals were randomized by treatment type using an online random number generator. Each treatment group was assigned a number, entered into the random number generator, recorded then translated back to the associated treatment. All injections were given in the left leg unless the treatment indicated “Contralateral” in which case the injection was given in the right leg. Both legs were shaved on all animals at the time of the treatment injections to blind the test administrator.
The rats were weighed the day prior to injection with monosodium iodoacetate (MIA), the agent used to induce osteoarthritis in the animals. The day of injection, rats from groups 2-8 received a subcutaneous (SC) dose of buprenorphine at least one hour prior to induction. […] Naïve animals were then placed in recovery. All other animals received an injection of MIA. In animals receiving MIA, the hind leg was flexed and an injection of MIA (25 μL) was injected into the intra-articular space using a 27 gauge ½ inch needle. Standard postoperative care was performed (twice daily for 48 hours).
On Day 8 the test article was administered as described above. On Days −1, 7, 14, 21, 28, and 35 post-induction, weight bearing was assessed. A weight bearing scale was utilized using a plexiglass chamber to assess the amount of weight distributed in each hind limb. The animals were acclimated to the chamber for at least 5 minutes prior to testing and the weight distribution was recorded 5 times.
The animals were terminated at day 36. Both stifles were collected from each animal; the skin was removed from the joint and the patella was removed while leaving as much of the fat pad intact with the joint. The stifle was placed in the appropriate cassette with rolled gauze to secure the stifle in the cassette and then placed into 4% Paraformaldehyde. These samples were examined histologically.

Setting [3] is: intra-articular on day -7 (Triamcinolone 0.06 mg; test compound 1 mg).
The mark [4] stands for this setting: intra-articular on day -7, 1 mg.
The mark [5] stands for this setting: right knee, day 18, intra-articular on day -7 (Triamcinolone 0.06 mg; test compound 1 mg).

What is called IC50 is the midpoint of a concentration-inhibition curve. Consider `COc1ccc(COc2ccc(Cn3c(N)nc4cc(-c5cnn(C)c5)cnc43)cc2OC)cc1` [Ex. 3-15, 3-(3-Methoxy-4-((4-methoxybenzyl)oxy)benzyl)-6-(1-methyl-1H-pyrazol-4-yl)-3H-imidazo[4,5-b]pyridin-2-amine], for which the Knee caliper measurements result in data set [1] (setting [3]) was “significantly reduced on day 14”. Also, in data set [1] (setting [3]), the “Reduction of knee caliper AUC” value is “generally unaffected”. For the same molecule, the “Reduction of gait scores and deficiency AUC, first reactivation” value in data set [1] (setting [4]) is 92-93%. Moreover, in data set [1] (setting [4]), the “Reduction of gait scores and deficiency AUC, second reactivation” value is reported as 85-86%. Further, the “Reduction of summed AUC for gait deficiency” value in data set [1] (setting [4]) is given as 84%. Further, the “Gait scores and deficiency, first reactivation” value in data set [1] (male Lewis rats, intra-articular on day -7 (Triamcinolone 0.06 mg; test compound 1 mg), days 1-4) is “significant reductions”. For the same molecule, the “Gait scores and deficiency, second reactivation: significant reduction” value in data set [1] (male Lewis rats, intra-articular on day -7 (Triamcinolone 0.06 mg; test compound 1 mg), days 14-18) is “Scores were significantly reduced throughout the second reactivation, and reductions in deficiency were significant on days 15, 17, and 18”. In data set [1] (setting [5]), the “Histopathology: reduction in summed scores” value is reported as 70%. In data set [1] (setting [5]), the “Histopathology: reductions in all parameters (bone resorption, inflammation, pannus, cartilage damage)” value is 49-94%. For the same molecule, the IC50 on TrkA amounted to 0.3 nM; at TrkB, 0.1 nM. The “Efficacy (weight bearing)” value in data set [2] (10 μg Contralateral injection on Day 8) is “efficacy at 3 and 4 weeks following administration”; in data set [2] (10 μg Ipsilateral injection on Day 8), “efficacy was observed at 2 through 4 weeks following administration”; in data set [2] (30 μg Contralateral injection on Day 8) it was “efficacy at only the 3 week timepoint”; in data set [2] (30 μg Ipsilateral injection on Day 8), “effective throughout the four weeks following administration”; in data set [2] (100 μg Ipsilateral injection on Day 8), “effective throughout the four weeks following administration”. For the same molecule, in data set [2] (100 μg Contralateral injection on Day 8, 1-4 weeks), the “Systemic pain relief (weight bearing)” value is “did not show systemic pain relief at any timepoint”. In addition, the “Comparison with MIA/LRS at day 35 (p<0.05)” value in data set [2] (Ipsilateral 30 μg) and in data set [2] (Ipsilateral 100 μg) was “MIA/LRS was significantly worse” in each case. In data set [2] (male Wistar rats, intra-articular on Day 8), the Body weight results is given as “No adverse observations”. In data set [2] (stifles collected at day 36), the “Histopathology of the knee joint” value is reported as “no adverse changes”.
